Values after ≈ are worked out from the molar mass of the structure shown. Read-outs that look alike come from different tables or passages of the source. Residues, ends and D or L forms follow the SMILES beside them.
What was measured:
[1] = system: Candida glabrata ATCC 90030; test: microbe, parasite or virus in culture; settings: for MIC: Nakaseomyces glabratus
Experimental: (§1) The following fungal isolates were used: Saccharomyces cerevisiae ATCC 9763, Candida albicans SC5314, Candida parapsilosis ATCC 22019, Candida tropicalis Ct016, Candida glabrata ATCC 90030, Aspergillus fumigatus ATCC 13073, and Aspergillus flavus ATCC MYA-1005. Frozen stocks of yeast isolates in glycerol (final concentration, 20%) were prepared by growing the cells to log phase in YPD medium at 30°C and 150 rpm. Frozen stocks of mold spores were prepared by harvesting spores from 7-day-old potato glucose agar plates in phosphate-buffered saline, 0.1% Tween 80 and aliquoting these spores in the presence of glycerol (final concentration, 20%). The cells were stored at −80°C. The cells or spores were thawed and diluted to a final concentration of 0.5 × 10^5 to 2.5 × 10^5 CFU/ml in sterile Milli-Q H2O. […] The plate was incubated for 20 to 24 h at 34°C (72 h for molds), and the OD490 was measured on a Victor X5 (PerkinElmer) plate reader. Mold growth assay plates were also visually inspected. The MIC was defined as the lowest concentration inhibiting the visual growth of the microorganism.

[2] = system: Aspergillus fumigatus ATCC 13073; test: microbe, parasite or virus in culture; settings: for MIC: Aspergillus fumigatus
Experimental: as §1

Candida tropicalis Ct016 = test: microbe, parasite or virus in culture; settings: for MIC: Candida tropicalis
Experimental: as §1

[3] = system: Candida parapsilosis ATCC 22019; test: microbe, parasite or virus in culture; settings: for MIC: Lodderomyces parapsilosis
Experimental: as §1

Candida albicans SC5314 = test: microbe, parasite or virus in culture; settings: for MIC: Candida albicans
Experimental: as §1

Na^+,K^+-ATPase = molecular target: T1, Na^+,K^+-ATPase (Sus scrofa, UniProt P05024); test: ATP hydrolysis assay, Na+,K+-ATPase; type: biochemical, porcine
T1 construct: from tissue; host or cells: porcine kidney (gift of Natalya Fedosova, Aarhus University)
Experimental: Rabbit sarcoplasmic reticulum membranes containing sarcoplasmic endoplasmic reticulum Ca^2+-ATPase (SERCA) were kindly provided by Claus E. Olesen and Jesper V. Møller, Aarhus University, and prepared as described in reference. Porcine kidney Na^+,K^+-ATPase was kindly provided by Natalya Fedosova, Aarhus University, and prepared as described in reference.
The protein activity levels were determined by measuring the amount of free phosphate produced from the ATP hydrolysis reaction. The assay was performed as described in reference. Each well contained ATPase enzyme, 2 μl of inhibitor (usually in the range of 333 to 0.01 μM) dissolved in dimethyl sulfoxide (DMSO) (Duchefa Biochemie, Haarlem, The Netherlands), and an assay buffer dependent on the enzyme for a final volume of 60 μl. Possible compound precipitation in the assay buffer was monitored using a Nephelostar plate reader measuring turbidity, and the information was taken into account in the IC50 determination. Pma1 assay buffer consisted of 20 mM 3-(N-morpholino)propanesulfonic acid (MOPS)–NaOH, pH 6.5 or 7.0, 8 mM MgSO4, 50 mM KNO3 (a vacuolar ATPase inhibitor), 25 mM sodium azide (a mitochondrial ATPase inhibitor), and 250 μM sodium molybdate (an acid phosphatase inhibitor). SERCA buffer consisted of 9 mM MOPS-NaOH, pH 7, 2.7 mM MgCl2, 90 μM CaCl2, and 72 mM KCl. Na^+,K^+-ATPase buffer consisted of 30 mM MOPS-NaOH, pH 7, 40 mM NaCl, 4 mM MgCl2, and 20 mM KCl. The concentration of protein was adjusted to obtain a signal of the optical density at 860 nm (OD860) of between 0.5 and 1.0 in the untreated samples (for all Pma1 batches, ∼1 to 2 μg/well; for SERCA and Na^+,K^+-ATPase, ∼0.1 to 0.2 μg/well).

[4] = ATCC90030, pH 7, read-out: MIC C. glabrata
[5] = ATCC13073, 72 h, pH 7, read-out: MIC A. fumigatus
[6] = CT016, pH 7, read-out: MIC C. tropicalis
[7] = ATCC22019, pH 7, read-out: MIC C. parapsilosis
[8] = SC5314, pH 7, read-out: MIC C. albicans
[9] = Table 1, ATP hydrolysis at pH 7.4 (compounds marked b), read-out: IC50 Na^+,K^+-ATPase
[10] = Table 1, ATP hydrolysis at pH 7, read-out: IC50 Na^+,K^+-ATPase
[11] = ATCC90030, read-out: MIC for growth inhibition, C. glabrata
[12] = ATCC13073, read-out: MIC for growth inhibition, A. fumigatus
[13] = CT016, read-out: MIC for growth inhibition, C. tropicalis
[14] = ATCC22019, read-out: MIC for growth inhibition, C. parapsilosis
[15] = SC5314, read-out: Growth inhibition MIC, C. albicans in RPMI
[16] = SC5314, read-out: MIC for growth inhibition, C. albicans
[17] = Table 2, pH 7, n = 2, porcine kidney, read-out: IC50 for ATP hydrolysis, Na^+,K^+-ATPase

SMILES | MIC [1, 4] | MIC [2, 5] | MIC (Candida tropicalis Ct016; [6]) | MIC [3, 7] | MIC (Candida albicans SC5314; [8]) | IC50 (Na^+,K^+-ATPase; [10]) | MIC [1, 11] | MIC [2, 12] | MIC (Candida tropicalis Ct016; [13]) | MIC [3, 14] | MIC (Candida albicans SC5314; [15]) | MIC (Candida albicans SC5314; [16]) | IC50 (Na^+,K^+-ATPase; [17]) | further results
N=C(N)NCCC[C@@H](N)C(=O)N[C@H](CCCNC(=N)N)C(=O)N[C@H](CCCNC(=N)N)C(=O)N[C@H](Cc1ccccc1)C(=O)N[C@H](Cc1c[nH]c2ccccc12)C(=O)N[C@H](Cc1c[nH]c2ccccc12)C(=O)N[C@H](Cc1ccccc1)C(=O)N[C@H](CCCNC(=N)N)C(=O)N[C@H](CCCNC(=N)N)C(=O)N[C@H](CCCNC(=N)N)C(N)=O [BM2, reference compound] (HELM PEPTIDE1{[dR].[dR].[dR].[dF].[dW].[dW].[dF].[dR].[dR].[dR].[am]}$$$$V2.0) | – | – | – | – | – | – | – | – | – | – | – | – | – | MIC for growth inhibition, C. glabrata ([1]; ATCC 90030): 150 µM; MIC for growth inhibition, A. fumigatus ([2]; ATCC 13073): >150 µM; MIC for growth inhibition, C. tropicalis (Candida tropicalis Ct016; Ct016): 4.7 µM; MIC for growth inhibition, C. parapsilosis ([3]; ATCC 22019): 26 µM; MIC for growth inhibition, C. albicans (Candida albicans SC5314; SC5314): 15 µM; IC50 (Na^+,K^+-ATPase): 10.4 ± 2.7 µM
O=C1/C(=C/c2ccc(-c3cc(Cl)ccc3Cl)o2)C=C(c2ccccc2)N1c1ccccc1O [Compound 1] | > 150 µM | > 150 µM | > 150 µM | > 150 µM | > 150 µM | – | – | – | – | – | – | – | – | IC50 (Na^+,K^+-ATPase; [9]): 13.2 ± 0.91 µM
COc1ccc(-c2cc(C(=O)Nc3ccc(C(C)C)cc3)c3ccccc3n2)c(OC)c1 [Compound 3] | > 150 µM | > 150 µM | > 150 µM | > 150 µM | > 150 µM | > 105 µM | – | – | – | – | – | – | – | –
CC1CCCCN1CC(O)Cn1c(-c2ccccc2)c(-c2ccccc2)c2ccc3ccccc3c21 (centres unmarked) [Compound 4] | > 38 µM | > 38 µM | 12 µM (≈ 5.7 µg/mL) | > 38 µM | 13 µM (≈ 6.17 µg/mL) | – | – | – | – | – | – | – | – | IC50 (Na^+,K^+-ATPase; [9]): 15 ± 7.2 µM
CCOc1ccc2nc3cc(NC(=O)c4cccc(Br)c4)ccc3c(N)c2c1 [Compound 5] | 5.8 µM (≈ 2.53 µg/mL) | > 75 µM | 7.5 µM (≈ 3.27 µg/mL) | 7.5 µM (≈ 3.27 µg/mL) | 6.5 µM (≈ 2.84 µg/mL) | – | – | – | – | – | – | – | – | IC50 (Na^+,K^+-ATPase; [9]): 1.3 ± 0.3 µM
Cc1c(-c2ccccc2)[o+]c2ccccc2c1C#Cc1ccccc1 [Compound 6] | > 150 µM | > 150 µM | > 150 µM | > 150 µM | > 150 µM | – | – | – | – | – | – | – | – | IC50 (Na^+,K^+-ATPase; [9]): 3.5 ± 3.7 µM
Oc1cccc(Nc2nc(-c3ccc(Cl)c(Cl)c3)cs2)c1 [Compound 7] | 4.7 µM (≈ 1.58 µg/mL) | > 150 µM | 26 µM (≈ 8.77 µg/mL) | 8.2 µM (≈ 2.77 µg/mL) | 7.3 µM (≈ 2.46 µg/mL) | – | – | – | – | – | – | – | – | IC50 (Na^+,K^+-ATPase; [9]): 5.8 ± 0.8 µM
COc1ccc(-c2cc(C(=O)Nc3ccc4c(c3)OCCO4)c3ccccc3n2)c(OC)c1 [Compound 8] | > 38 µM | > 38 µM | > 38 µM | > 38 µM | > 38 µM | > 105 µM | – | – | – | – | – | – | – | –
COc1cccc(Nc2nc(Cl)nc(Nc3cccc(OC)c3)n2)c1 [Compound 9] | > 150 µM | > 150 µM | > 150 µM | > 150 µM | > 150 µM | > 105 µM | – | – | – | – | – | – | – | –
CCCCOc1ccc(C2C(C#N)=C(N)Oc3cc(O)ccc32)cc1 (centres unmarked) [Compound 11] | > 150 µM | > 150 µM | > 150 µM | > 150 µM | > 150 µM | 30.3 ± 2.4 µM | – | – | – | – | – | – | – | –
COc1ccc(Cn2c(SCc3cc(C)ccc3C)nc3cc(OC)c(OC)cc3c2=N)cc1 [Compound 12] | > 150 µM | > 150 µM | > 150 µM | > 150 µM | 12 µM (≈ 5.71 µg/mL) | 58.7 ± 40.2 µM | – | – | – | – | – | – | – | –
CCCCc1nc2sc3c(NCCCN(C)C)ncnc3c2c2c1CCCC2 [Compound 14] | 41 µM (≈ 16.3 µg/mL) | 75 µM (≈ 29.8 µg/mL) | 24 µM (≈ 9.54 µg/mL) | 24 µM (≈ 9.54 µg/mL) | 36 µM (≈ 14.3 µg/mL) | 18.4 ± 2.1 µM | 41 µM (≈ 16.3 µg/mL) | 75 µM (≈ 29.8 µg/mL) | 24 µM (≈ 9.54 µg/mL) | 24 µM (≈ 9.54 µg/mL) | 36 µM (≈ 14.3 µg/mL) | 36 µM (≈ 14.3 µg/mL) | – | –
CCCCc1nc2sc3c(NCCCN(C)C)nc(SC)nc3c2c2c1CCC2 [Compound 15] | – | – | – | – | – | – | 15 µM (≈ 6.44 µg/mL) | 15 µM (≈ 6.44 µg/mL) | 47 µM (≈ 20.2 µg/mL) | 15 µM (≈ 6.44 µg/mL) | 4.8 µM (≈ 2.06 µg/mL) | 4.8 µM (≈ 2.06 µg/mL) | 4.1 ± 0.6 µM | –
CN(C)CCCNc1ncnc2c1sc1nc(N3CCCCC3)c3c(c12)CCCC3 [Compound 16] | – | – | – | – | – | – | 11 µM (≈ 4.67 µg/mL) | 15 µM (≈ 6.37 µg/mL) | 28 µM (≈ 11.9 µg/mL) | 15 µM (≈ 6.37 µg/mL) | 15 µM (≈ 6.37 µg/mL) | 15 µM (≈ 6.37 µg/mL) | 9.1 ± 1 µM | –
CCc1nc2sc3c(NCCCN(C)C)ncnc3c2c2c1CCCC2 [Compound 17] | – | – | – | – | – | – | 150 µM (≈ 55.4 µg/mL) | > 150 µM | 150 µM (≈ 55.4 µg/mL) | 150 µM (≈ 55.4 µg/mL) | 150 µM (≈ 55.4 µg/mL) | 150 µM (≈ 55.4 µg/mL) | > 333 µM | –
CN(C)CCCNc1ncnc2c1sc1nc(-c3ccccc3)c3c(c12)CCC3 [Compound 18] | – | – | – | – | – | – | 41 µM (≈ 16.5 µg/mL) | 75 µM (≈ 30.3 µg/mL) | 58 µM (≈ 23.4 µg/mL) | 24 µM (≈ 9.69 µg/mL) | 75 µM (≈ 30.3 µg/mL) | 75 µM (≈ 30.3 µg/mL) | 85.7 ± 26.6 µM | –
CCN(CC)CCCNc1nc(SC)nc2c1sc1nc(-c3ccccc3)c3c(c12)CCC3 [Compound 19] | – | – | – | – | – | – | 3.7 µM (≈ 1.77 µg/mL) | 12 µM (≈ 5.73 µg/mL) | 3.7 µM (≈ 1.77 µg/mL) | 3.7 µM (≈ 1.77 µg/mL) | 7 µM (≈ 3.34 µg/mL) | 6 µM (≈ 2.87 µg/mL) | 5.5 ± 1.8 µM | –
O=c1c2ccccc2[se]n1-c1ccccc1 [Ebselen, reference compound] | – | – | – | – | – | – | 7.5 µM (≈ 2.06 µg/mL) | 24 µM (≈ 6.58 µg/mL) | 11 µM (≈ 3.02 µg/mL) | 24 µM (≈ 6.58 µg/mL) | – | 7.5 µM (≈ 2.06 µg/mL) | 0.16 ± 0.01 µM | –
[O]=[V]([O-])([O-])[O-] [Vanadate, reference compound] | – | – | – | – | – | – | – | – | – | – | – | – | 0.006 ± 0.001 µM | MIC for growth inhibition, C. glabrata ([1]; Table 3): >750 µM; MIC for growth inhibition, A. fumigatus ([2]; Table 3): >750 µM; MIC for growth inhibition, C. tropicalis (Candida tropicalis Ct016; Table 3): >750 µM; MIC for growth inhibition, C. parapsilosis ([3]; Table 3): >750 µM; MIC for growth inhibition, C. albicans (Candida albicans SC5314; Table 3): >750 µM

Reference: paper PMC5487681, “Identification of Antifungal H^+-ATPase Inhibitors with Effect on Plasma Membrane Potential” (Antimicrobial Agents and Chemotherapy, 2017)
